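Exposure lasted 48 hours, with cells grown in 96-well plates and compounds tested at five concentrations. At the TGI there is no net growth.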
Columns and labels:
Experiment in all cases: inhibition of tumour cell growth, NCI panel, 48 h
T-47D breast = test system: T-47D breast
UACC-62 melanoma = test system: UACC-62 melanoma
SNB-75 CNS = test system: SNB-75 CNS
OVCAR-5 ovarian = test system: OVCAR-5 ovarian
HS 578T breast = test system: HS 578T breast
HT29 colon = test system: HT29 colon
A549 NSCLC = test system: A549 NSCLC
HCT-116 colon = test system: HCT-116 colon
MDA-MB-435 = test system: MDA-MB-435
DU-145 prostate = test system: DU-145 prostate
SN12C renal = test system: SN12C renal
ACHN renal = test system: ACHN renal
OVCAR-8 ovarian = test system: OVCAR-8 ovarian
LOX IMVI melanoma = test system: LOX IMVI melanoma
COLO 205 colon = test system: COLO 205 colon
HCT-15 colon = test system: HCT-15 colon
SR leukemia = test system: SR leukemia
NCI-H226 lung = test system: NCI-H226 lung
SF-268 CNS = test system: SF-268 CNS
UACC-257 melanoma = test system: UACC-257 melanoma
HCC-2998 colon = test system: HCC-2998 colon
U251 CNS = test system: U251 CNS
CAKI-1 renal = test system: CAKI-1 renal
MDA-MB-231 breast = test system: MDA-MB-231 breast
SK-MEL-5 melanoma = test system: SK-MEL-5 melanoma
SW-620 colon = test system: SW-620 colon
NCI-H23 lung = test system: NCI-H23 lung
M14 melanoma = test system: M14 melanoma
HL-60(TB) leukemia = test system: HL-60(TB) leukemia
SF-295 CNS = test system: SF-295 CNS
CCRF-CEM leukemia = test system: CCRF-CEM leukemia
K-562 leukemia = test system: K-562 leukemia
SK-OV-3 ovarian = test system: SK-OV-3 ovarian
SK-MEL-2 melanoma = test system: SK-MEL-2 melanoma
PC-3 prostate = test system: PC-3 prostate
KM12 colon = test system: KM12 colon
MALME-3M melanoma = test system: MALME-3M melanoma
MDA-N = test system: MDA-N
IGROV1 ovarian = test system: IGROV1 ovarian
BT-549 breast = test system: BT-549 breast
NCI-H522 lung = test system: NCI-H522 lung
RPMI-8226 leukemia = test system: RPMI-8226 leukemia
OVCAR-3 ovarian = test system: OVCAR-3 ovarian
MOLT-4 leukemia = test system: MOLT-4 leukemia
UO-31 renal = test system: UO-31 renal
NCI/ADR-RES ovarian = test system: NCI/ADR-RES ovarian
SF-539 CNS = test system: SF-539 CNS
EKVX NSCLC = test system: EKVX NSCLC
OVCAR-4 ovarian = test system: OVCAR-4 ovarian
MCF7 breast = test system: MCF7 breast
SNB-19 CNS = test system: SNB-19 CNS
TK-10 renal = test system: TK-10 renal
HOP-62 NSCLC = test system: HOP-62 NSCLC
786-0 renal = test system: 786-0 renal
HOP-92 NSCLC = test system: HOP-92 NSCLC

Measured: TGI

COC1CC(OC2C(C)OC(OC3C(C)OC(OC4C(C)OC(O[C@H]5CC[C@@]6(C)C(=CC[C@]7(O)[C@@H]6C[C@@H](OC(=O)/C=C(\C)C(C)C)[C@@]6(C)[C@]7(O)CC[C@@]6(O)C(C)=O)C5)CC4OC)CC3OC)CC2OC)OC(C)C1O (stereo not given in full)
> 12.5 µM: T-47D breast | UACC-62 melanoma | SNB-75 CNS | OVCAR-5 ovarian | HS 578T breast | HT29 colon | A549 NSCLC | HCT-116 colon | MDA-MB-435 | DU-145 prostate | SN12C renal | ACHN renal | OVCAR-8 ovarian | LOX IMVI melanoma | COLO 205 colon | HCT-15 colon | SR leukemia | NCI-H226 lung | SF-268 CNS | UACC-257 melanoma | HCC-2998 colon | U251 CNS | CAKI-1 renal | MDA-MB-231 breast | SK-MEL-5 melanoma | SW-620 colon | NCI-H23 lung | M14 melanoma | HL-60(TB) leukemia | SF-295 CNS | CCRF-CEM leukemia | K-562 leukemia | SK-OV-3 ovarian | SK-MEL-2 melanoma | PC-3 prostate | KM12 colon | MALME-3M melanoma | MDA-N | IGROV1 ovarian | BT-549 breast | NCI-H522 lung | RPMI-8226 leukemia | OVCAR-3 ovarian | MOLT-4 leukemia | UO-31 renal | NCI/ADR-RES ovarian | SF-539 CNS | EKVX NSCLC | OVCAR-4 ovarian | MCF7 breast | SNB-19 CNS | TK-10 renal | HOP-62 NSCLC | 786-0 renal | HOP-92 NSCLC

From PubChem BioAssay (NCI)
